Data taken from patent publication US20180284123A1, “BARCODED RAPID ASSAY PLATFORM USEFUL FOR EFFICIENT ANALYSIS OF CANDIDATE MOLECULES AND METHODS OF MAKING AND USING THE PLATFORM” (California Institute of Technology, priority 2017, published 2018).
Numbered stars: 1 amine (or outer) side, 2 acyl side, 3 side chain; on linkers, the order of the positions; unused ones are H or OH. Bridge positions count the residues as written; N and C are the ends. Square brackets hold non-standard residues; d marks the D form. Triazole bridges read from a SMILES are 1,4-linked. Peptide text beside a SMILES is read from it. * marks the point of attachment. Biotin = O=C1N[C@H]2[C@H](CS[C@H]2CCCCC(=O)*)N1; Lys(N3) = [N-]=[N+]=NCCCC[C@H](N)C(=O)O; Ethylenediamine = C(CN[*:2])N[*:1]; PEG5 = NCCOCCOCCOCCOCCOCCC(=O)O; Pra = C#CC[C@H](N)C(=O)O

Molecular target: T1, KRAS (Homo sapiens, UniProt P01116)
T1 construct: His6-tagged human KRas Isoform 4B (residues 1-169); His6; made in house; host or cells: E. coli BL21(DE3), PQE80 vector
Test: B-RAP surface immunofluorescent assay, PCC ligand KRas EC50
Format: binding
Conditions: for Avg F635, Full Centroid / Avg F635, Full Lane / avg F635, Left Part Centroid / avg F635, Middle Part Centroid / avg F635, Right Part Centroid: 10 μM KRas well of plate #1, pixel by pixel; for avg F635, Left Part Centroid: left part of centroid; for avg F635, Middle Part Centroid: middle part of centroid; for avg F635, Right Part Centroid: right part of centroid; for EC50: 13-point KRas concentration series, each point in decaplicate, Hill coefficient=1
Method: The barcode patterned microchip surface was partitioned into 16 individual microwells using a pre-fabricated PDMS slab. Individual biotinylated PCC candidates were complexed to specific SAC-DNA conjugates, combined into a cocktail, and then self-assembled, via DNA hybridization, onto designated barcode stripes (FIGS. 2-4). Incubation with a specific concentration of the target protein preceded incubation with a primary capture antibody and then a fluorophore-conjugated secondary detection antibody. During assay execution, each well represents a different target concentration or assay condition. Once developed, the fluorescence of the barcodes is digitized using a GenePix 4400A array scanner, with an excitation laser power optimized to a power level of 40% (60 W), which maximizes detection sensitivity while also minimizing signal saturation. Data extraction occurs using 10 μm radius circles, taken along the length of a barcode stripe. A fluorescence signal representing the average of all the pixels within a given circle is collected. A total of ten circles (data-blocks) are measured along a 180 μm span of the middle portion for each individual barcode lane in a given well. 10 μM KRas protein gave an average F635 of 47,868.7, with a standard deviation of 4154.53. 1 μM KRas protein gave an average F635 of 11437.6, with a standard deviation of 1602.202. 100 nM KRas protein gave an average F635 of 1780.6, with a standard deviation of 236.38. This illustrates the intensity across a stripe compared to the intensity from the data-block extraction. After extraction the data is background corrected. The background signal arises from (a) non-specific binding of the primary and secondary antibodies (independent of [KRas]), but can vary across different barcode stripes), and (b) non-specific binding of KRas protein ([KRas] dependent). Background (a) was assessed by measuring the average signal in the null protein well for each stripe. Background (b) was assessed by measuring the average fluorescence for the dummy ligand (Biotin* probe) that was in each well. The background subtracted data was then graphed in Graphpad Prism 7 and fitted to a sigmoidal curve (Hill coefficient=1).
Measurement of PCC Ligand KRas EC50 with the Barcode Rapid Assay Platform
Protein Incubation Buffer: Tris-buffered saline (TBS)+0.05% Tween20 (TBST)
A pre-fabricated PDMS template was aligned onto the DNA barcode microchip, and the microchip was taped into a 10 cm petri dish. The wells on the platform were wet with 50 μL PBST before filling with blocking buffer and placing into a 37° C. incubator for 1 hr. Concurrently, 40 μL 1% BSA in PBS solutions containing 750 nM of a SAC-DNA conjugate and 3.75 μM of one biotinylated PCC ligand or biotin-A20-Cy3 blank were prepared for each SAC-DNA conjugate. The biotinylated ligands were allowed to complex with the SAC protein for one hour before pooling the SAC-DNA-ligand solutions (final [SAC-DNA-ligand conjugates]=50 nM). The blocking buffer was aspirated and each well was loaded with the SAC-DNA-ligand conjugates cocktail for hybridization with the DNA barcode at 37° C. for one hour. The wells were washed with PBST (3×) before loading serially diluted solutions of KRas protein in protein buffer (0 to 400 μM). After shaking at RT for one hour, the wells were rinsed with PBST (5×), making sure to pipet up/down with the first addition of PB ST. A (100:1) dilution of CST rabbit anti-Ras Ab (#39655) in 1° ab buffer was added to each well before shaking at RT for one hour. After rinsing the wells with PBST (3×), the wells were loaded with a (200:1) dilution of Abcam goat anti-rabbit-Alexafluor 647 linked ab (ab150079) in 2° ab buffer before shaking at RT for one hour. A final rinse of the wells with PBST (3×) proceeded peeling off the PDMS slab from the barcode microchip and dipping the barcode into the following solutions: PBS, (1:1) PBS: MQ H2O, MQ H2O (2×). […]

T1 sequence (P01116 1-169 isoform P01116-2): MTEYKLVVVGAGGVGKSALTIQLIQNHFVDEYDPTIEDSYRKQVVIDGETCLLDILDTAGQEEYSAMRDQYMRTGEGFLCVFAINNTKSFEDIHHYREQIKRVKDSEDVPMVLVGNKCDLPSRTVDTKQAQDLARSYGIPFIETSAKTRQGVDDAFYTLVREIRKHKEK

Row | Structure (SMILES) | Avg F635, Full Centroid | Avg F635, Full Lane | avg F635, Left Part Centroid | avg F635, Middle Part Centroid | avg F635, Right Part Centroid | EC50 [µM]
1 | CCC(C)[C@@H]1NC(=O)CNC(=O)[C@H](Cc2cnc[nH]2)NC(=O)[C@@H](N)Cc2cn(nn2)CCCC[C@@H](C(=O)NCCOCCOCCOCCOCCOCCC(=O)NCCNC(=O)CCCC[C@@H]2SC[C@@H]3NC(=O)N[C@@H]32)NC(=O)CNC(=O)[C@H](C(C)C)NC1=O (single isomer, unassigned) [Ligand L1b, HGIVG] | 24340 | 22519 | 21889 | 24245 | 26959 | 
2 | CC(C)[C@@H]1NC(=O)[C@H](CCC(=O)O)NC(=O)CNC(=O)[C@@H](N)Cc2cn(nn2)CCCC[C@@H](C(=O)NCCOCCOCCOCCOCCOCCC(=O)NCCNC(=O)CCCC[C@@H]2SC[C@@H]3NC(=O)N[C@@H]32)NC(=O)[C@@H]2CCCN2C(=O)[C@H](C(C)C)NC1=O (single isomer, unassigned) [Ligand L3a, GEVVP] | 8117 | 7151 | 7137 | 8430 | 8811 | 1.49 ± 0.28
3 | CC(C)[C@@H]1NC(=O)[C@H](CCC(=O)O)NC(=O)CNC(=O)[C@@H](N)Cc2cn(nn2)CCCC[C@@H](C(=O)NCCOCCOCCOCCOCCOCCC(=O)NCCNC(=O)CCCC[C@@H]2SC[C@@H]3NC(=O)N[C@@H]32)NC(=O)[C@@H]2CCCN2C(=O)[C@H](C(C)C)NC1=O (single isomer, unassigned) [Ligand L3b, GEVVP] | 16158 | 15157 | 15070 | 16390 | 17046 | 13.7 ± 4.8
4 | CC(C)[C@@H]1NC(=O)[C@@H](N)Cc2cn(nn2)CCCC[C@@H](C(=O)NCCOCCOCCOCCOCCOCCC(=O)NCCNC(=O)CCCC[C@@H]2SC[C@@H]3NC(=O)N[C@@H]32)NC(=O)[C@H](Cc2ccc(O)cc2)NC(=O)[C@@H]2CCCN2C(=O)[C@H](C(C)C)NC(=O)[C@H](CCC(=O)O)NC1=O (single isomer, unassigned) [Ligand L4a, VEVPY] | 11363 | 10434 | 10179 | 11181 | 12764 | 9.51 ± 2.2
5 | CC(C)[C@@H]1NC(=O)[C@@H](N)Cc2cn(nn2)CCCC[C@@H](C(=O)NCCOCCOCCOCCOCCOCCC(=O)NCCNC(=O)CCCC[C@@H]2SC[C@@H]3NC(=O)N[C@@H]32)NC(=O)[C@H](Cc2ccc(O)cc2)NC(=O)[C@@H]2CCCN2C(=O)[C@H](C(C)C)NC(=O)[C@H](CCC(=O)O)NC1=O (single isomer, unassigned) [Ligand L4b, VEVPY] | 27245 | 25079 | 23307 | 27398 | 31147 | 52.2 ± 22
6 | CC(C)[C@@H]1NC(=O)[C@H](CCC(=O)O)NC(=O)[C@H](C(C)C)NC(=O)[C@@H](N)Cc2cn(nn2)CCCC[C@@H](C(=O)NCCOCCOCCOCCOCCOCCC(=O)NCCNC(=O)CCCC[C@@H]2SC[C@@H]3NC(=O)N[C@@H]32)NC(=O)[C@@H]2CCCN2C(=O)[C@H](Cc2ccc(O)cc2)NC1=O (single isomer, unassigned) [Ligand L5a, VEVYP] | 8341 | 7851 | 7918 | 8920 | 8196 | 
7 | CC(C)[C@@H]1NC(=O)[C@H](CCC(=O)O)NC(=O)[C@H](C(C)C)NC(=O)[C@@H](N)Cc2cn(nn2)CCCC[C@@H](C(=O)NCCOCCOCCOCCOCCOCCC(=O)NCCNC(=O)CCCC[C@@H]2SC[C@@H]3NC(=O)N[C@@H]32)NC(=O)[C@@H]2CCCN2C(=O)[C@H](Cc2ccc(O)cc2)NC1=O (single isomer, unassigned) [Ligand L5b, VEVYP] | 32390 | 31581 | 31947 | 32789 | 32448 | 
8 | CC(C)[C@@H]1NC(=O)[C@@H](N)Cc2cn(nn2)CCCC[C@@H](C(=O)NCCOCCOCCOCCOCCOCCC(=O)NCCNC(=O)CCCC[C@@H]2SC[C@@H]3NC(=O)NC32)NC(=O)[C@H](Cc2ccc(O)cc2)NC(=O)[C@@H]2CCCN2C(=O)[C@H](C(C)C)NC(=O)[C@H](CCC(N)=O)NC1=O (single isomer, unassigned) [Ligand L7a, VQVPY] | 36651 | 32992 | 32020 | 37152 | 40918 | 4.22 ± 0.71
9 | CC(C)[C@@H]1NC(=O)[C@@H](N)Cc2cn(nn2)CCCC[C@@H](C(=O)NCCOCCOCCOCCOCCOCCC(=O)NCCNC(=O)CCCC[C@@H]2SC[C@@H]3NC(=O)NC32)NC(=O)[C@H](Cc2ccc(O)cc2)NC(=O)[C@@H]2CCCN2C(=O)[C@H](C(C)C)NC(=O)[C@H](CCC(N)=O)NC1=O (single isomer, unassigned) [Ligand L7b, VQVPY] | 16195 | 14791 | 12956 | 16944 | 18781 | 25.3 ± 8.9
10 | CC(C)[C@@H]1NC(=O)[C@@H](N)Cc2cn(nn2)CCCC[C@@H](C(=O)NCCOCCOCCOCCOCCOCCC(=O)NCCNC(=O)CCCC[C@@H]2SC[C@@H]3NC(=O)N[C@@H]32)NC(=O)[C@H](Cc2ccc(O)cc2)NC(=O)[C@@H]2CCCN2C(=O)[C@H](C(C)C)NC(=O)[C@H]([C@@H](C)O)NC1=O [Ligand L6] (H-[Pra]VTVPY[Lys(N3)][PEG5]-{Ethylenediamine-Biotin}; triazole 1-7) | 17836 | 15968 | 15645 | 19382 | 18546 | 
11 | CC(C)[C@@H]1NC(=O)[C@@H](N)Cc2cn(nn2)CCCC[C@@H](C(=O)NCCOCCOCCOCCOCCOCCC(=O)NCCNC(=O)CCCC[C@@H]2SC[C@@H]3NC(=O)NC32)NC(=O)[C@H](Cc2ccc(O)cc2)NC(=O)[C@@H]2CCCN2C(=O)[C@H](C(C)C)NC(=O)[C@H](CCC(N)=O)NC1=O (stereo partly shown) [Ligand L7, VQVPY] | 53496 | 48537 | 48599 | 54620 | 57411 | 
